Source: the NIST ThermoML archive (doi:10.1021/je800012v)

Assay: xn = mol fraction of the nth substance listed
Conditions: 333.15 K, Liquid

CCCCCl [1-chlorobutane] + CCCCCC
mass density [kg/m3]
Conditions | x1 = 0.1099 | x1 = 0.212 | x1 = 0.2925 | x1 = 0.316 | x1 = 0.405 | x1 = 0.4978 | x1 = 0.5975 | x1 = 0.6869 | x1 = 0.8294 | x1 = 0.9025
2500 kPa | – | 663.28 | 678.48 | 683.13 | 701.13 | 720.76 | 742.8 | 763.57 | 798.68 | 817.7
5000 kPa | 647.85 | 666.6 | 681.96 | 686.6 | 704.59 | 724.22 | 746.27 | 766.97 | 802.05 | 821.05
10000 kPa | 654.25 | 673.04 | 688.41 | 693.04 | 711.02 | 730.64 | 752.68 | 773.35 | 808.4 | 827.36
15000 kPa | 660.12 | 678.96 | 694.34 | 698.97 | 716.97 | 736.59 | 758.64 | 779.29 | 814.33 | 833.22
20000 kPa | 665.54 | 684.42 | 699.82 | 704.46 | 722.46 | 742.1 | 764.16 | 784.83 | 819.85 | 838.75
25000 kPa | 670.56 | 689.51 | 704.94 | 709.59 | 727.62 | 747.28 | 769.35 | 790.03 | 825.07 | 843.95
30000 kPa | 675.27 | 694.27 | 709.73 | 714.38 | 732.45 | 752.13 | 774.27 | 794.94 | 830 | 848.89
35000 kPa | 679.71 | 698.78 | 714.25 | 718.92 | 737.02 | 756.72 | 778.9 | 799.6 | 834.7 | 853.59
